Results: publication PMC6934184, “Selective DNA-PKcs inhibition extends the therapeutic index of localized radiotherapy and chemotherapy” (The Journal of Clinical Investigation, 2019)

Target: T1, PAK1 (Homo sapiens, UniProt Q13153)
T1 construct: purchased Thermo Fisher Scientific (Life Technologies) SelectScreen
Assay: SelectScreen Z'LYTE
Format: biochemical
Method in brief: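 NU5455 was profiled across the SelectScreen Broad panel of kinase activity and binding assays. Z'LYTE reactions such as CSF1R ran at apparent Km ATP, while the Adapta CAMK1 assay used ATP listed as 10. Values are given as percent.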

T1 sequence (Q13153 whole entry): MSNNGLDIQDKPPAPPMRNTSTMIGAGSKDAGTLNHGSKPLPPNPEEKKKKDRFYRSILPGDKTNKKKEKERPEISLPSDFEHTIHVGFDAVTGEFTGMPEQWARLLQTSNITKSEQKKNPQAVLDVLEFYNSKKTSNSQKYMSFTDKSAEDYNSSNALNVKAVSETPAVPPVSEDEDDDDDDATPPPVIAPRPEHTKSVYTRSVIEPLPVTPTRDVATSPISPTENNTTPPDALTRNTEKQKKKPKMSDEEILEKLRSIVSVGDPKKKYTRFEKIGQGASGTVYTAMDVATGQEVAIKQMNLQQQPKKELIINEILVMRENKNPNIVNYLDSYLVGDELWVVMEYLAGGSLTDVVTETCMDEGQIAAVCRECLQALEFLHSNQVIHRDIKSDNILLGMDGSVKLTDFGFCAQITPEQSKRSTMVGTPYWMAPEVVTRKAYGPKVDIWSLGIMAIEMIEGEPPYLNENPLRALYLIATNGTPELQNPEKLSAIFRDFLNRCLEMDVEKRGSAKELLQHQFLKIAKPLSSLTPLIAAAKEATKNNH

With CN(C(=O)CN1CCOCC1)c1ccc2sc3c(-c4cccc5c(=O)cc(N6CC7CCC(C6)O7)oc45)cccc3c2c1 [NU5455] the inhibition at 1 µM was -4.4%.
